Test results: PubChem BioAssay AID2305 (GlaxoSmithKline (GSK), 2010)
“And” between values parts separate entries of the source, which are not always exact repeats. Identical values can stand only once.

These molecules were tested on P. falciparum 3D7 growth, pLDH absorbance (assay: blood-stage malaria parasite growth potency – strain 3D7, dose response (AID 2305)).

Compound	IC50
CCN(CCCN1CCCCC1)c1cc(C)nc(Nc2cccc3c2CCCC3)n1	1030 nM
CC(C)CNCc1ccc(-c2cccc(CN(CCCN3CCN(C)CC3)C(=O)/C=C/c3ccccc3)c2)cc1	870 nM
O=C(Nc1ccc2nc3n(c(=O)c2c1)CCCCC3)C(=O)N1CCC(Cc2ccccc2)CC1	760 nM
Cc1[nH]c(C)c(-c2ccc(-c3cccc(C(F)(F)F)c3)nc2)c(=O)c1Br	140 nM
O=[N+]([O-])c1ccc(C(O)P(=O)(c2ccccc2)c2ccccc2)cc1 (stereo not given)	340 nM
CN1CCC(c2cc3c(cc2Br)CCN3C(=O)Nc2ccc(-c3ccncc3)c(Cl)c2)CC1	1010 nM
CCNc1cc(C(=O)N[C@@H](Cc2ccccc2)[C@H](O)CNCCC(C)c2ccccc2)cc(N2CCCC2=O)c1 (stereo not given in full)	510 nM
COc1cccc(NC(=O)c2nc(N3CCN(c4ccncc4)CC3)ccc2Cl)c1	920 nM
CN1CCN(Cc2ccc(-c3cc4c(Nc5ccc(OCc6cccc(F)c6)c(Cl)c5)ncnc4s3)[nH]2)CC1	770 nM
CN(Cc1cccc(C#N)c1)C1CCN(c2cc(NC(=O)c3cccc(F)c3)ccn2)CC1	930 nM
CC(=O)Nc1nc(C(=O)Nc2ccc(-c3cccc(-c4nc5ccc(F)cc5[nH]4)c3)cc2)cs1	290 nM
CC(C)(C)c1nn(-c2ccccc2)c2[nH]c(=O)c(CNCCc3ccccc3)cc12	870 nM
CCc1nnc2sc(-c3cccc(NC(=O)c4ccc(OC)c(Cl)c4)c3)nn12	1140 nM
O=S(=O)(NCCN1CCCC1)c1ccc(-c2cccc(CNC3Cc4ccccc4C3)c2)s1	750 nM
O=C(NCc1ccc(F)cc1)c1cc(Br)cc(N2CCN(c3ccncc3)CC2)c1	1230 nM
CCCCc1ccc2nc(NC(=O)OC)[nH]c2c1	680 nM
O=C(NCC1CC1)C1CCN(C(c2ccc(Cl)cc2)c2ccc(Cl)cc2)CC1	190 nM
CNC(=O)c1cnc(Nc2ccc(N3CCN(C)CC3)cc2)nc1Nc1cccc(OC(C)C)c1	150 nM
O=C(c1cccc(-c2ccc(-c3nc4ccc(C(F)(F)F)cc4[nH]3)cc2)c1)N1CCCCC1CN1CCC(O)C1 (stereo not given)	470 nM
CCc1[nH]nc(C(=O)NC2CCN(CC3(c4ccc(OC)cc4)CCCCC3)CC2)c1C	890 nM
CN1CCN(c2cc(NC(=O)c3ccc(-c4ccc(Cl)cc4)cc3)ccc2Cl)CC1	610 nM
CC(C)CCN=C(N)Nc1ccc(OCCCCCOc2ccc(NC(N)=NCCC(C)C)cc2)cc1	1080 nM
O=C(Nc1ccc(Cl)cc1)Nc1ccc(-c2cccc(-c3nc4ccccc4[nH]3)c2)cc1	160 nM
O=C(Nc1ccc(Cl)cc1)N[C@H]1CCN(Cc2ccc(OCCCN3CCCCC3)cc2)C1	670 nM

Compound	IC50
Cc1[nH]c(C)c(-c2ccc(-c3ccccc3F)nc2)c(=O)c1Br	400 nM
Cc1cc(N[C@@H](Cc2ccccc2)C(=O)NC2CCCC2)nc(NCCOc2ccccc2)n1	1110 nM
N#Cc1ccc(N2CCN(Cc3ccc(-c4ccc(-c5nc6ccccc6[nH]5)s4)cc3)CC2)nc1	1080 nM
CCC[C@]1(C)CSc2ccccc2[C@@H](c2ccccc2)N1	710 nM
c1ccc(CN2CCC(NCc3ccccc3-c3ccc(CNCc4ccc5c(c4)OCO5)cc3)CC2)cc1	330 nM
CC(C)N1CCC(N(Cc2ccc(-c3ccc(C(F)(F)F)cc3)cc2)C(=O)Cn2c(CCc3cccc(F)c3F)cc(=O)c3ccccc32)CC1	850 nM
c1ccc(COc2ccc(C3CCCCC3)cc2)nc1	770 nM
COc1cc(CCN=C(N)/C=C/c2ccc(Cl)cc2)ccc1Cl	240 nM
CON=Cc1sc(CNCCCNc2cc(=O)c3ccccc3[nH]2)c(C)c1Br	960 nM
C[C@]12CC3CC(Nc4nc(N5CCOCC5)nc5ccccc45)(C1)C[C@@](C)(C3)C2	940 nM
Cc1cccc2[nH]c(-c3cccc(-c4cccc(CNCc5cnn(-c6ccccc6)n5)c4)c3)nc12	660 nM
Nc1c(Cl)cc(C(O)CNCCCCCOCCc2ccc3ccccc3n2)cc1Cl (stereo not given)	1020 nM
C[C@@H]1C[C@@H]([C@H](O)CC2CC(=O)NC(=O)C2)C(=O)[C@@H](C)C1	530 nM
CCc1ccc(NC(=O)c2cccc(CN3CCCN(Cc4cccc(O)c4)CC3)c2)cc1	890 nM
COc1ccc2c(=O)c(-c3ccc(OC(F)(F)F)cc3)c(C)[nH]c2c1	230 nM
COc1cccc2cc(C(=O)N[C@@H](CC(C)C)C(=O)NC(/C=N/NC(=O)c3ccccc3)CCc3ccccc3)oc12 (stereo not given in full)	580 nM
CC(C)CCNc1nc(NCCc2ccccc2)c2cc(O)ccc2n1	240 nM
Fc1ccc(Nc2ccnc3cc(-c4ccc(CN5CCOCC5)o4)ccc23)c(Cl)c1	760 nM
COc1ccc2nccc([C@@H](O)CN3CCC(NC(=O)C(c4cc5ccccc5s4)N4CCN(c5ccccc5OC)CC4)CC3)c2c1 (stereo not given in full)	160 nM
Cc1cc(N[C@@H](Cc2ccccc2)C(=O)Nc2ccccc2)nc(NCCN2CCCC2)n1	1810 nM
CC(Cc1ccc(NC(=O)c2ccc(CNCc3ccccc3)cc2)cc1)N(CCc1cccc(Cl)c1)C(=O)OC(C)(C)C (stereo not given)	970 nM
COc1c(CN2CCOCC2)cccc1-c1cc2c(-c3ccc(C(=O)O)c(C(C)C)c3)ccnc2[nH]1	740 nM
CC(C)CCNC(=O)c1cnc2c(O)cccc2c1Nc1cccc(NC(=O)c2ccc(F)cc2)c1	910 nM
Oc1ccc(Nc2nc(NCC3CCCO3)c3ccccc3n2)cc1 (stereo not given)	810 nM

Compound	IC50
Cn1c(=O)c2cc(C(=O)NCCCN3CCCCCC3)sc2c2ccccc21	690 nM
CCCCCN1CCC(NC(=O)c2ccc(C(=O)Nc3ccc(C(C)C)cc3)cc2)CC1	850 nM
CCOC(=O)c1cn(CC)c2cc(N(C)CCc3ccc(OC)c(OC)c3)c(F)cc2c1=O	430 nM
COc1ccc2nccc([C@@H](O)CN3CCC(NCc4cc5c(cc4F)SCC(=O)N5)CC3)c2n1	1000 nM
CC(C)(C)Cn1cc(-c2ccc(C(=O)NCCc3ccc(S(C)(=O)=O)cc3)cc2)c(N)n1 (tested in a mixture with another compound)	650 nM
Cc1cc(N[C@@H](Cc2ccccc2)C(=O)NCCc2ccccc2)nc(NCCc2ccccc2)n1	850 nM
CC(=O)c1ccccc1OCCSc1nnc(Cc2cccs2)n1C1CCCCC1	920 nM
Cc1ccc(S(=O)(=O)NC2CCN(c3ccnc4cc(Cl)ccc34)C2)cc1 (stereo not given)	620 nM
NC(=O)C1CCN(Cc2ccc(-c3ccc(-c4nc5ccc(C(F)(F)F)cc5[nH]4)s3)cc2)CC1	540 nM
CS(=O)(=O)N1CC2(CCN(CCC(NC(=O)Nc3ccccc3)c3ccc(Cl)c(Cl)c3)CC2)c2ccccc21 (stereo not given)	820 nM
COc1ccc(OCCCN2CCCCC2)cc1S(=O)(=O)c1ccc(OCc2ccc(C(F)(F)F)cc2)cc1	1010 nM
Cc1[nH]c(C)c(-c2ccc(-c3ccc(F)cc3)cc2)c(=O)c1Br	1070 nM
Nc1ncc(-c2ccc(Br)cc2)c(N)n1	920 nM
CC(C)N1CCC(NC(=O)N2CCCN(c3ncnc4cc(-c5ccc(Cl)cc5)sc34)CC2)CC1	1940 nM
c1ccc(-c2nc(NC3CCCCC3)cc(C3CC3)n2)nc1	730 nM
CCCCc1ccc(-c2nc(NC(=O)Nc3nc(-c4ccccc4)[nH]c3C(=O)OCC)c(C(=O)OCC)[nH]2)cc1	750 nM
COc1ccc(OC)c2c1CCN(CCN1CCC(C(=O)Nc3ccc(C(=O)Nc4ccc(Cl)cc4)cc3)CC1)C2	580 nM
Cc1ccc(CNC(=O)[C@H](Cc2ccccc2)Nc2cc(C)nc(NCC3CCCCC3)n2)cc1	900 nM
COc1cc(NC2CCCC(NCc3cn(S(=O)(=O)c4ccccc4)c4ccccc34)C2)nc2ccccc12 (stereo not given)	250 nM
CN(C)CCOc1ccc(/C(=C(/CCCn2ccnc2)c2ccccc2)c2ccc(O)cc2)cc1	770 nM
O=C(Nc1ccc(OC2CCN(Cc3ccccc3)C2)c(Cl)c1)c1ccsc1 (stereo not given)	730 nM
CC(=O)Nc1ccc(S(=O)(=O)N(Cc2cccc(Oc3ccccc3)c2)C2CCN(C/C=C(\C)CCC=C(C)C)CC2)cc1	190 nM
Fc1cccc(-c2ccc3c(c2)CC(NCc2c[nH]c4cnccc24)C3)c1 (stereo not given)	480 nM
CN1C(=C2SC(=Nc3ccc4ncccc4c3)N(Cc3ccccc3)C2=O)Sc2ccc(Cl)cc21	1060 nM

Compound	IC50
Cc1nc(-c2ccc(-c3ccc(NC(=O)Nc4ccc(I)c(OCCN(C)C)c4)cc3)c(C)c2)no1	370 nM
N#Cc1ccc(-c2ccc(C(=O)NC3CCN(CCN4CCC(c5cn(CCOC6CCCCO6)c6ccccc56)CC4)CC3)cc2)cc1 (stereo not given)	600 nM
Cc1cc(C(=O)Nc2ccc3c(c2)CCN3C2CCN(Cc3ccc(F)cc3Cl)C2)no1 (stereo not given)	190 nM
CC(C)NCc1cccc(-c2cccc(-c3nc4ccc(F)cc4[nH]3)c2)c1	280 nM
CN(C)C=Nc1ccc(OCCCCCCOc2ccc(N=CN(C)C)cc2)cc1	130 nM
CC(C)NCc1cccc(-c2ccc(NS(=O)(=O)c3cccc4cccnc34)cc2)c1	1080 nM
Cc1cc(CN2CC[C@H](NC(=O)c3ccc(Cl)c(Cl)c3)C2)ccc1OCCCN(C)C	840 nM
COc1ccc(Nc2ncc(OC)c(Nc3ccccc3C(N)=O)n2)cc1N1CCN(C)CC1	740 nM
CCN(CC)CCN1C(=O)C(O)(c2ccccc2Cl)c2c1cc(C(N)=O)cc2C(F)(F)F (stereo not given)	700 nM
O=C(N[C@@H](CC1CCCCC1)C(=O)NC1CCCc2ccccc21)c1ccc(O)c(-c2ccc(Cl)c(Cl)c2)c1 (stereo not given in full)	200 nM
O=C(c1cccc(-c2noc(C(F)(F)F)n2)c1)N1CCN(c2ccncc2)CC1	230 nM
CC(C)COc1ccc(Cl)cc1Cc1ccc(-c2nc3ccc(Br)cc3[nH]2)o1	1400 nM
CC(C)c1ccc(C(NC(=O)C2CCCCC2)c2ccc3cccnc3c2O)cc1 (stereo not given)	600 nM
CC1(C)N=C(N)N=C(N)N1c1cc(Cl)c(Cl)c(Cl)c1	10 nM
CCCN1CCN(c2ccc(NS(=O)(=O)c3ccc(C(=O)Nc4ccc(Cl)cc4)cc3)cc2)CC1	1110 nM
CCC(CC(NCCCCNC(=O)c1ccc(NC(=O)c2ccc(Cl)cc2)cc1)c1ccccc1)c1ccccc1OC (stereo not given)	670 nM and 790 nM
Cc1cc(NN=Cc2cccc(F)c2)c2cccc(C)c2n1	770 nM
O=C(Nc1cccc(CN2CCCN(Cc3ccc(O)cc3)CC2)c1)c1ccc(Cl)c(Cl)c1	260 nM
CC(C)CC(NC(=O)c1cccc(OCCN2CCOCC2)c1)C(=O)NC(/C=N/NC(=O)c1ccccc1)CCc1ccccc1 (stereo not given)	250 nM
Cc1nc(-c2ccncc2)sc1C(=O)Nc1ccc(Cl)cc1C(=O)Nc1ccc(Cl)cc1	760 nM
CCC(CC)CN1C(=O)C(C)(c2ccccc2)N=C1N (stereo not given)	1060 nM
O=C(Nc1ccccc1O)c1ccc(S(=O)(=O)c2ccc(Cl)cc2)cc1	1350 nM
CCOc1cc(C)ccc1C1CCN(CCN2CCC(CNC(=O)c3ccc(-c4ccc(C(F)(F)F)cc4)cc3)CC2)CC1	700 nM
